Laboratory results: patent publication US8293751B2, “1,2,3-trisubstituted aryl and heteroaryl derivatives as modulators of metabolism and the prophylaxis and treatment of disorders related thereto such as diabetes and hyperglycemia” (Arena Pharmaceuticals, Inc., priority 2003, dated 2012)
“Also recorded” adds a separate entry of the source.

Key:
isolated rat islets = experiment: Stimulation of insulin secretion in isolated rat islets; assay type: cell-based; details: 10 μM concentration, enhancement comparable to 25 nM GLP-1, FIG. 4D
Procedure: E. Stimulation of Insulin Secretion in Isolated Rat Islets
As with HIT-T15 cells, it is known that stimulation of cAMP in isolated rat islets causes an increase in insulin secretion when the glucose concentration in the culture media is changed from 60 mg/dl to 300 mg/dl. RUP3 is an endogenously expressed GPCR in the insulin-producing cells of rat islets. Thus, RUP3 ligands can also be tested for their ability to stimulate GSIS in rat islet cultures. This assay is performed as follows: • A. Select 75-150 islet equivalents (IEQ) for each assay condition using a dissecting microscope. Incubate overnight in low-glucose culture medium. (Optional.) • B. Divide the islets evenly into triplicate samples of 25-40 islet equivalents per sample. Transfer to 40 μm mesh sterile cell strainers in wells of a 6-well plate with 5 ml of low (60 mg/dl) glucose Krebs-Ringers Buffer (KRB) assay medium. • C. Incubate 30 minutes (1 hour if overnight step skipped) at 37° C. and 5% CO2. Save the supernatants if a positive control for the RIA is desired. • D. Move strainers with islets to new wells with 5 ml/well low glucose KRB. […] Freeze and store at <−20° C. until insulin concentrations can be determined. • I. Insulin determinations are done as above, or by Linco Labs as a custom service, using their rat insulin RIA (Cat. #RI-13K). […]

RUP3 = target: T1, RUP3 (Homo sapiens, UniProt Q8TDV5); experiment: 96-Well Cyclic AMP Membrane Assay for RUP3 (Membrane Cyclase Assay); assay type: biochemical; details: RUP3 membranes, cAMP Flashplate
T1 construct: seen in the listing only (N); seen in the listing only (C); expressed in transfected cells
T1 sequence (Q8TDV5 with tags, fused parts or gaps): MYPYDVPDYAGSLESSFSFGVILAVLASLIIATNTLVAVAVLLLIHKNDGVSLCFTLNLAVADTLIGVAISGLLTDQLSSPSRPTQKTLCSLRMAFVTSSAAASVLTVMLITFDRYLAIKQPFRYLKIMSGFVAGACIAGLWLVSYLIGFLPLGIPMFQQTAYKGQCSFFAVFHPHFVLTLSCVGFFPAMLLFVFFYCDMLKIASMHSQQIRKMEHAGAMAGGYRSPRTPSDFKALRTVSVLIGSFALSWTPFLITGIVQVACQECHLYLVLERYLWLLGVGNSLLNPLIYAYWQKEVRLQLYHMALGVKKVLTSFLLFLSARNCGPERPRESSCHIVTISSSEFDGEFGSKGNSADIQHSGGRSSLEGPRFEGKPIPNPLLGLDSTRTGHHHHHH
Procedure: 96-Well Cyclic AMP Membrane Assay for RUP3
Binding Buffer—filter through […] Nalgene filter and keep in refrigerator. All buffers and membranes should be kept cold (in ice bucket) while performing assay. • 20 mM Hepes, pH7.4 • 1 mM MgCl2 • 100 mM NaCl • 2× Regeneration Buffer (make in binding buffer): • 20 mM Phosphocreatine (1.02 gm/200 ml binding buffer) • 20 units Creatine phosphokinase (4 mg/200 ml) • 20 uM GTP (make up 10.46 mg/ml in binding buffer and add 200 ul/200 ml) • 0.2 mM ATP (22.04 mg/200 ml) • […] IBMX (44.4 mg IBMX dissolved in 1 ml 100% DMSO first and then add the entire amount to 200 ml of buffer).
Regeneration buffer can be aliquotted into 40-45 ml portions (in 50 ml sterile tubes) and kept frozen for up to 2 months. Simply put the tube in a beaker with room temperature water to thaw out the regeneration buffer on the day of the assay. […]
IC50s or EC50s are done in triplicate. […] The membranes are kept in ice all the time, and a polytron (Brinkmann polytron, model #PT-3100) is used (setting 6-7, for 15-20 seconds) to obtain a homogeneous membrane suspension.) Protein concentration is determined by Bradford protein assay kit using instructions given in the kit, using the standard supplied with the kit as a reference. […]

HIT-T15 cells [1] = experiment: Stimulation of insulin secretion in HIT-T15 cells; assay type: cell-based, hamster; details: HIT-T15 cells exposed to 15 mM glucose; compared with forskolin; FIG. 4C
Procedure: D. Stimulation of Insulin Secretion in HIT-T15 Cells
It is known that stimulation of cAMP in HIT-T15 cells causes an increase in insulin secretion when the glucose concentration in the culture media is changed from 3 mM to 15 mM. Thus, RUP3 ligands can also be tested for their ability to stimulate glucose-dependent insulin secretion (GSIS) in HIT-T15 cells. In this assay, 30,000 cells/well in a 12-well plate are incubated in culture media containing 3 mM glucose and no serum for 2 hours. The media is then changed; wells receive media containing either 3 mM or 15 mM glucose, and in both cases the media contains either vehicle (DMSO) or RUP3 ligand at a concentration of interest. Some wells receive media containing 1 uM forskolin as a positive control. All conditions are tested in triplicate. Cells are incubated for 30 minutes, and the amount of insulin secreted into the media is determined by ELISA, using a kit from either Peninsula Laboratories (Cat #ELIS-7536) or Crystal Chem Inc. (Cat #90060).
In the first of these, RUP3 agonists are used to stimulate HIT-T15 cells, which express RUP3 at significant levels, as indicated in the Northern blot shown in FIG. 4A.

HIT-T15 cells [2] = experiment: Stimulation of cAMP in HIT-T15 cells; assay type: cell-based, hamster; details: compared with adenyl cyclase activator forskolin, FIG. 4B
Procedure: C. Stimulation of cAMP in HIT-T15 Cells
HIT-T15 (ATCC CRL#1777) is an immortalized hamster insulin-producing cell line. These cells express RUP3 and therefore can be used to assess the ability of RUP3 ligands to stimulate or inhibit cAMP accumulation via its endogenously expressed receptor. In this assay, cells are grown to 80% confluence and then distributed into a 96-well Flashplate (50,000 cells/well) for detection of cAMP via a “cAMP Flashplate Assay” (NEN, Cat #SMP004). Briefly, cells are placed into anti-cAMP antibody-coated wells that contain either vehicle, the test ligand(s) at a concentration of interest, or 1 uM forskolin. The latter is a direct activator of adenylyl cyclase and serves as a positive control for stimulation of cAMP in HIT-T15 cells. All conditions are tested in triplicate. After ail hour incubation to allow for stimulation of cAMP, a Detection Mix containing ^125I-cAMP is added to each well and the plate is allowed to incubate for another 1 hour. The wells are then aspirated to remove unbound ^125I-cAMP. Bound ^125I-cAMP is detected using a Wallac Microbeta Counter. The amount of cAMP in each sample is determined by comparison to a standard curve, obtained by placing known concentrations of cAMP in some wells on the plate. […]

[3] = tested on: db mice (C57BL/KsOlahsd-Leprdb, diabetic); experiment: Acute response of db mice to RUP3 agonist (blood glucose); assay type: in vivo; details: male db mice; 1 μg/kg, intraperitoneally; FIG. 5B
Procedure: B. […] Male db mice (C57BL/KsOlahsd-Leprdb, diabetic, Harlan) at age of 10 weeks were randomly grouped (n=6) to receive vehicle (oral gavage), Compound B70 (60 mg/kg, oral gavage), or Ex-4 (1 μg/kg, intraperitoneally). After compound administration, food was removed and blood glucose levels were determined at indicated times as shown in FIG. 5B. Reduction in blood glucose at each time point was expressed as percentage of original glucose levels, averaged from six animals for each group.

With CCOC(=O)C1CCN(c2ncnc(Oc3ccc(C4NC(=O)NC4=O)cc3)c2[N+](=O)[O-])CC1 (stereo not shown) [Compound A48, 1-{6-[4-(2,5-Dioxo-imidazolidin-4-yl)-phenoxy]-5-nitro-pyrimidin-4-yl}-piperidine-4-carboxylic acid ethyl ester] the glucose-dependent insulin release (isolated rat islets) was “enhanced glucose-dependent insulin release compared to control”.
CCOC(=O)C1CCN(c2ncnc(Oc3ccc(CCC(C)=O)cc3)c2[N+](=O)[O-])CC1 [Compound A51, 1-{5-Nitro-6-[4-(3-oxo-butyl)-phenoxy]-pyrimidin-4-yl}-piperidine-4-carboxylic acid ethyl ester] was tested, and the glucose-dependent insulin release (isolated rat islets) was “enhanced glucose-dependent insulin release compared to control”.
CCCC1CCN(c2ncnc(Oc3ccc(C(=O)c4ccc(F)cc4)cc3)c2[N+](=O)[O-])CC1 [Compound A124, (4-Fluoro-phenyl)-{4-[5-nitro-6-(4-propyl-piperidin-1-yl)-pyrimidin-4-yloxy]-phenyl}-methanone] showed an IC50 (RUP3) of 0.241 µM.
For CS(=O)(=O)c1ccc(Nc2ncnc(N3CCC(Sc4ccccc4)CC3)c2[N+](=O)[O-])cc1 [Compound B84, (4-Methanesulfonyl-phenyl)-[5-nitro-6-(4-phenylsulfanyl-piperidin-1-yl)-pyrimidin-4-yl]-amine], the “insulin secretion in HIT cells” value (HIT-T15 cells [1]) was “stimulates insulin secretion in HIT cells exposed to 15 mM glucose, once again at a level comparable to that seen with the adenyl cyclas activator forskolin; also recorded: stimulates insulin secretion in HIT cells exposed to 15 mM glucose, at a level comparable to that seen with the adenylcyclase activator forskolin”, the “cAMP production in HIT cells” value (HIT-T15 cells [2]) was “stimulates cAMP production in HIT cells, at a level comparable to that seen with the adenyl cyclase activator forskolin” and the IC50 (RUP3) was 0.05 µM.
In the case of extendin-4 [Ex-4, reference compound], the “blood glucose levels compared to vehicle control” value [3] is reported as “significantly reduces glucose levels compared to vehicle control”.
